# Values quoted from earlier work, collected in the CATMoS acute toxicity set (Mansouri et al. 2021).
# “And” between values parts separate entries of the source, which are not always exact repeats. Equal values may be shown once.
# Experiment: rat acute oral toxicity
# Conditions: in vivo
row,SMILES,LD50
1,COc1ccc(CC2NCCc3cc(OC)c(OC)cc32)cc1OC (stereo not given),700 mg/kg
2,CC(Oc1ccc(Oc2ncc(Cl)cc2Cl)cc1)C(=O)N1CCCO1 (stereo not given),500 mg/kg
3,CC(=O)C=Cc1ccc(-c2ccccc2)cc1,2230 mg/kg
4,O=C(Cc1ccc(-c2ccccc2)cc1)Nc1ccccn1,1860 mg/kg
5,Cc1ccc(C(=O)C(C)CN2CCCCC2)cc1 (stereo not given),1450 mg/kg
6,CC1=CC(=O)/C(=C(/C)O)C(=O)O1,500 mg/kg
7,CC(=O)OCc1ccc2c(c1)OCO2,2100 mg/kg
8,CC(=O)c1ccc(C)cc1,1400 mg/kg
9,CCCCNCC1COc2cccc(OCC)c2O1 (stereo not given),348 mg/kg
10,O=C(O)c1cc2ccccc2oc1=O,200 mg/kg
11,CC(C)c1cccc(C(C)(C)O)c1,6000 mg/kg
12,CNCCCN1c2ccccc2CCc2ccccc21,375 mg/kg and 871 mg/kg
13,NCCCn1ccnc1,1780 mg/kg
14,C1C[SiH2]C1,1540 mg/kg
15,CCNC(=S)NCC,316 mg/kg
16,Nc1ccc([N+](=O)[O-])cc1[N+](=O)[O-],285 mg/kg
17,CCCNC(=O)c1sc(-c2cc(OC)c(OC)c(OC)c2)nc1C,5600 mg/kg
18,CNC(=O)ON=C1SC(=NC(C)C)SC1(C)C,8.9 mg/kg
19,O=C(OCC=Cc1ccccc1)c1ccccc1,4000 mg/kg
20,CC1=Nc2ccc(Cl)cc2S(=O)(=O)N1,980 mg/kg
21,CS(=O)(=O)c1ccc(CN(CCO)C(=O)C(Cl)Cl)cc1,12500 mg/kg
22,Cc1ccc(/C(=C\CN2CCCC2)c2ccccn2)cc1,840 mg/kg
23,Cc1ccccc1NC(=S)NN,200 mg/kg
24,CCc1cccc(CC)c1N(CNC(C)=O)C(=O)CCl,3100 mg/kg
25,COc1ccc(N2CCN(CCCN(C)C)CC2)cc1,787 mg/kg

row,SMILES,LD50
1,CCN(CC)c1ccc(-c2nc(=O)n(C)nc2-c2ccc(N(CC)CC)cc2)cc1,650 mg/kg
2,COC(=O)C[N+](=O)[O-],3770 mg/kg
3,OCCN(CCO)c1nc(-c2ccccc2)c(-c2ccccc2)o1,11400 mg/kg
4,CCCCCCOC(=O)C(O)c1ccccc1 (stereo not given),17000 mg/kg
5,COP(=S)(OC)SCn1nc(Cl)c(Cl)cc1=O,12000 mg/kg
6,CCOCCN(C(=O)CCl)C(=C(C)C)c1ccccc1,983 mg/kg
7,COP(=O)(OC)OC(=CCl)c1cc(Cl)c(Cl)cc1Cl,4000 mg/kg
8,CN1C(C(=O)Nc2ccccn2)=C(OC(=O)C(C)(C)C)c2sc(Cl)cc2S1(=O)=O,24.6 mg/kg
9,CNC(=O)Nc1nc2ccccc2s1,1280 mg/kg
10,CN=NNc1ccc(C)cc1,381 mg/kg
11,Fc1ccc(-c2cccs2)cc1,500 mg/kg
12,Nc1cc(Cl)c(N)cc1Cl,1750 mg/kg
13,CCC12CCCN3CCc4c(n(c5cc(Br)ccc45)C(O)(C(=O)OC)C1)C32 (stereo not given),1740 mg/kg
14,c1ccc2c(c1)OCO2,580 mg/kg
15,ClCCOCCCl,75 mg/kg
16,CCC(C)OC(CBr)c1ccccc1 (stereo not given),250 mg/kg
17,O=C(O)c1ccccc1-c1ccccc1CO,6500 mg/kg
18,O=C(NCCO)c1ccccc1O,4300 mg/kg
19,Nc1n[nH]c2ccc(C(F)(F)F)cc12,90 mg/kg
20,CCN(CC)CCNC(=O)c1ccc(NS(C)(=O)=O)cc1,3200 mg/kg
21,CC(=O)C=C1CCC2C13CCC(C)C(C3)C2(C)C (stereo not given),5200 mg/kg
22,O=C=Nc1cccc(Cl)c1,4200 mg/kg
23,O=C1C(=NNc2cc([N+](=O)[O-])ccc2O)C(S(=O)(=O)O)=Cc2cc(S(=O)(=O)O)cc(Nc3nc(Cl)nc(Cl)n3)c21,9120 mg/kg
24,O=C(OCc1ccccc1)c1sc(Cl)nc1C(F)(F)F,5010 mg/kg
25,CC(C)c1ccccc1OP(=O)(Oc1ccccc1)Oc1ccccc1,10000 mg/kg

row,SMILES,LD50
1,C[C@H](CCC(=O)O)[C@H]1CC[C@H]2[C@@H]3[C@@H](O)C[C@@H]4C[C@H](O)CC[C@]4(C)[C@H]3CC[C@]12C,4600 mg/kg
2,C=CCNP(=O)(OC=C(Cl)Cl)OC1CCCCC1 (stereo not given),100 mg/kg
3,CN(CCN(C)N=O)N=O,125 mg/kg
4,CCCCCCOCCOC(=O)CCC(=O)OCCOCCCCCC,4280 mg/kg
5,CNC(=O)Oc1ccc(N=CN(C)C)c(C)c1,7.2 mg/kg
6,COC(=O)CCC(Br)C(C)=O (stereo not given),600 mg/kg
7,CO[Si](CCl)(OC)OC,500 mg/kg
8,CCC(CC)C(=O)OCC(Cl)(Cl)Cl,900 mg/kg
9,C=CCNC(=S)Nc1ccccc1,750 mg/kg
10,O=C(O)Cc1ccc(C2CCCCC2)c(Cl)c1,83 mg/kg
11,Cc1ccnc(C)c1,200 mg/kg
12,CNC(=O)Oc1ccccc1C(OC)OC,160 mg/kg
13,CCOC(=O)NNc1ccc(N(CC)CC(C)O)nn1 (stereo not given),2060 mg/kg
14,CC(C)c1ccc2oc3nc(N)c(C(=O)O)cc3c(=O)c2c1,10000 mg/kg
15,C[Si](C)(C)CCC(=O)O,3000 mg/kg
16,CC[C@@H](C(=O)[C@@H](C)[C@@H](O)[C@H](C)CCc1ccc(C)c(O)c1C(=O)O)[C@H]1O[C@](CC)([C@H]2CC[C@](O)(CC)[C@H](C)O2)C[C@@H]1C,122 mg/kg
17,NC(=S)NC(N)=S,5 mg/kg
18,N#C[C@H](O[C@@H]1O[C@H](CO)[C@@H](O)[C@H](O)[C@H]1O)c1ccccc1,560 mg/kg
19,CCOP(=S)(OC(C)C)Sc1nc(C)cc(C)n1 (stereo not given),68 mg/kg
20,CCCCCCCc1ccc(C)cc1O,3320 mg/kg
21,CN(Sc1ccccc1)C(=O)Oc1cccc2c1OC(C)(C)C2,25 mg/kg
22,COP(=S)(OC)SCSc1ccccc1,16 mg/kg
23,C=C1C[C@]23C[C@@]1(O)CC[C@H]2[C@@]12C=C[C@H](O)[C@@](C)(C(=O)O1)[C@H]2[C@@H]3C(=O)O,6300 mg/kg
24,CCCOc1cccc(C)c1N(COCC)C(=O)CCl,2600 mg/kg
25,O=C(O)C(Cc1cc(I)c(O)c(I)c1)c1ccccc1 (stereo not given),1100 mg/kg

row,SMILES,LD50
1,COP(=O)(OC)OC(=C(Br)Br)c1ccc(Cl)cc1Cl,180 mg/kg
2,S=C(NNc1ccccc1)NNc1ccccc1,1500 mg/kg
3,COP(N)(=S)OC,410 mg/kg
4,CCCCCCOC(=O)CC#N,6440 mg/kg
5,CCOP(=O)(OC=CCl)OCC,7 mg/kg
6,Clc1cc(Cl)c(Cl)cc1Cl,1500 mg/kg
7,CC(=O)Oc1ccccc1C=CC(=O)O,3150 mg/kg
8,CCCCn1c(=O)n(CCC)c(=O)c2c(NC)n(C(=O)OC)nc21,2380 mg/kg
9,O=S(=O)(O)c1ccccc1O,1900 mg/kg
10,O=C(O)C=Cc1ccc([N+](=O)[O-])o1,1220 mg/kg
11,COc1ccc(C(=O)CCC(=O)O)c2ccccc12,1800 mg/kg
12,C/C(=N/NC(=O)c1ccncc1)c1ccco1,110 mg/kg
13,CN(C(=O)CN(CCO)CC(=O)N(C)C(C)(C)Cc1ccccc1)C(C)(C)Cc1ccccc1,1000 mg/kg and 675 mg/kg
14,CCOP(=S)(OCC)SCc1ccc([N+](=O)[O-])cc1,100 mg/kg
15,O=C(OCC(O)CO)c1ccccc1Nc1ccnc2c(C(F)(F)F)cccc12 (stereo not given),535 mg/kg
16,CS(=O)(=O)c1nnc(C(F)(F)F)s1,312 mg/kg
17,CS(=O)(=O)Oc1ccc(Cl)cc1Cl,2790 mg/kg
18,CCCCCCCC(=O)OCC,26000 mg/kg
19,CC(C)N(Cc1ccccc1)C(=O)C(C)(C)C,6000 mg/kg
20,NCCN1CCOCC1,3000 mg/kg
21,CCNP(=S)(OC)Oc1cc(Cl)c(Cl)cc1Cl (stereo not given),450 mg/kg
22,C/C=C\c1ccc(OCc2ccccc2)c(OC)c1,4900 mg/kg
23,O=c1[nH]c2cc(Br)ccc2o1,1050 mg/kg
24,COCCNC(=O)CSP(=S)(OC)OC,420 mg/kg
25,CC(=NNCCC1CCCCC1)C(=O)O,520 mg/kg

row,SMILES,LD50
1,CCOC(=S)SCSSCP(=O)(OCC)OCC,14 mg/kg
2,COc1cc2nc(N3CCN(C(=O)C4CCCO4)CC3)nc(N)c2cc1OC (stereo not given),5500 mg/kg
3,FC(Cl)C(F)(Cl)Cl (stereo not given),7800 mg/kg
4,Nc1cc2c(cc1C1CCCCC1)CCC2C(=O)O (stereo not given),54 mg/kg
5,CC1OCCO1,2900 mg/kg
6,O=C(O)c1cc(O)nc(O)n1,10900 mg/kg
7,COc1cc2c(cc1OC)C1Cc3ccc(OC)c(OC)c3CN1CC2 (stereo not given),580 mg/kg
8,CNCCCC1c2ccccc2CN(C)c2ccccc21 (stereo not given),331 mg/kg
9,COP(=S)(OC)Oc1cc(Cl)c([N+](=O)[O-])c(Cl)c1,750 mg/kg
10,CCCCC[C@H](O)/C=C/[C@H]1[C@H](O)CC(=O)[C@@H]1C/C=C\CCCC(=O)O,500 mg/kg
11,Cn1c(=O)sc2cccc(Cl)c21,1940 mg/kg
12,C1CCNC1,300 mg/kg
13,CC[C@@]1(O)C(=O)OCc2c1cc1n(c2=O)Cc2cc3ccccc3nc2-1,153 mg/kg
14,C=CCOP(OCC=C)OCC=C,178 mg/kg
15,Clc1cccc(Cl)c1Nc1ncccn1,4720 mg/kg
16,CC(CCc1ccc(O)cc1)NCCc1ccc(O)c(O)c1 (stereo not given),2300 mg/kg
17,COP(=S)(OC)SCOC(C)=O,93 mg/kg
18,CCCCN(CCCC)S(=O)(=O)c1ccc(Cl)cc1,500 mg/kg
19,C1=Cc2cccc(OCC3CNCCO3)c2C1 (stereo not given),502 mg/kg
20,CN(C)C(=O)OC1=CC(=O)CC(C)(C)C1,120 mg/kg
21,CCN(CCC#N)c1ccccc1,4840 mg/kg
22,COc1cccc(CCc2ccccc2OCC(CN(C)C)OC(=O)CCC(=O)O)c1 (stereo not given),4400 mg/kg
23,CC(O)=S,200 mg/kg
24,CCC(CC)COC(=O)CCCCC(=O)OCC(CC)CC,5620 mg/kg
25,CCOC(=O)c1ccccc1,2100 mg/kg

row,SMILES,LD50
1,CCN(CC)CCN(C)n1cc(-c2ccccc2)c2ccccc21,650 mg/kg
2,S=C(Cl)Cl,929 mg/kg
3,c1ccc2sc(SNC3CCCCC3)nc2c1,5300 mg/kg
4,O=Cc1ccc(CO)o1,2500 mg/kg
5,N#CN,1620 mg/kg
6,Fc1c(Br)c(Cl)c2nc(C(F)(F)F)[nH]c2c1Br,6.28 mg/kg
7,C=CCCC=O,620 mg/kg
8,O=C(OCC1CO1)c1ccccc1C(=O)OCC1CO1 (stereo not given),1240 mg/kg
9,CCCCCCCCCCCC[N+](C)(C)Cc1ccccc1,400 mg/kg and 230 mg/kg
10,CN(C)c1ccc(C=C2C(=O)N=C3c4ccccc4N=CN23)cc1,355 mg/kg
11,C=C(C)C(=O)OCC(=O)OCC,7880 mg/kg
12,CN(C)CCN(Cc1ccccc1)c1ccccn1,469 mg/kg
13,CC(=O)CCCCn1c(=O)c2c(ncn2C)n(C)c1=O,1170 mg/kg
14,CC(C)NC(=O)OCC(O)C1COc2ccccc2O1 (stereo not given),1500 mg/kg
15,c1ccc2c(c1)OCCOCCOc1ccccc1OCCOCCO2,2600 mg/kg
16,N#CSc1cccc(C(=O)O)c1,73 mg/kg
17,CN1C(=O)c2ccc([N+](=O)[O-])cc2C1=O,2800 mg/kg
18,N#CCCOCCCCOCCC#N,4000 mg/kg
19,CCCCCC(=O)NO,3200 mg/kg
20,COc1ccc2c(c1)c(CC(=O)OCC(=O)O)c(C)n2C(=O)c1ccc(Cl)cc1,24.2 mg/kg
21,O=C(OCCCOC(=O)c1ccccc1)c1ccccc1,24000 mg/kg
22,CSCCC(OC(C)=O)C(=O)O (stereo not given),2340 mg/kg
23,FC(F)(F)c1nc2c(Cl)c(Br)c(Br)c(Cl)c2[nH]1,3.43 mg/kg
24,CCOCC(C)O (stereo not given),4400 mg/kg
25,Oc1ccc(-c2ccccc2)cc1CN1CCCC1,30 mg/kg
